According to patent US20180296630A1, “METHODS AND COMPOSITIONS FOR PREVENTING OR TREATING OPHTHALMIC CONDITIONS” (Stealth BioTherapeutics Corp, priority 2012, published 2018):

What was measured:
[1] = tested on: primary human retinal pigment epithelial (RPE) cells; experiment: Apoptosis of RPE cells induced by tBHP; type: cell-based; settings: 1 μM for 4 h + 250 μM tBHP for 24 h
Method: FIG. 34A: control group; (Q2+Q4)%=1.27±0.3%; FIG. 34B: 250 μM tBHP for 24 h group; (Q2+Q4)%=15.7±0.6%; FIG. 34C: 1 μM D-Arg-2′,6′-Dmt-Lys-Phe-NH2 for 4 h+250 μM tBHP for 24 h group; (Q2+Q4)%=8.4±0.8%. FIG. 34D is a chart comparing the fluorescence ratio for the different groups. *P<0.05 C vs. B. FIG. 35 is a chart showing the MDA level induced by tBHP in 3 groups of RPE cells. (*P<0.05).

[2] = tested on: human retinal epithelial cells (HREC); experiment: Intracellular ROS in HRECs exposed to 30 mM glucose (dihydroethidium); type: cell-based; settings: 100 nM, 24 h and 48 h
Method: FIGS. 2A-2F is a series of micrographs showing co-treatment with D-Arg-2′,6′-Dmt-Lys-Phe-NH2 (SS-31) reduced intracellular reactive oxygen species (ROS) in HRECs exposed to 30 mM glucose for 24 h and 48 h. Intracellular ROS was measured using dihydroethidium. 2A, 2D normal culture media; 2B, 2E 30 mM glucose; and 2C, 2F 30 mM glucose+D-Arg-2′,6′-Dmt-Lys-Phe-NH2 (SS-31) (100 nM) at 24 and 48 h, respectively.
(§1) The survival of HRECs in high glucose co-treated with D-Arg-2′,6′-Dmt-Lys-Phe-NH2 was tested at 24 h and 48 h.

[3] = tested on: STZ and HFD/STZ diabetic rats; experiment: Retinal microvessel changes in diabetic SD rats; type: in vivo, Sprague-Dawley rat; settings: STZ or HFD/STZ rats
Method: A rat model of diabetes was established by combination of 6-week HFD and low dose of STZ (30 mg/kg) injection or a single high dose of STZ (65 mg/kg) in SD rats. See generally, K. Srinivasan, B. Viswanad, Lydia Asrat, C. L. Kaul and P. Ramarao, Combination of high-fat diet-fed and low-dose streptozotocin-treated rat: A model for type 2 diabetes and pharmacological screening, Pharmacological Research, 52(4): 313-320, 2005. Rats of the same batch fed with normal chow (NRC) were used as a control.
The effect of the aromatic-cationic peptides on retinal microvessels in the SD rat model was investigated (FIGS. 11-12). Administration of D-Arg-2′,6′-Dmt-Lys-Phe-NH2 reduced retinal microvasular changes observed in STZ or HFD/STZ rats.

[4] = tested on: human retinal epithelial cells (HREC); experiment: Survival of HRECs in high glucose (Annexin V/PI, flow cytometry); type: cell-based; settings: for survival ratio for HRECs (Q3): 24 hours
From the text: Methods of HREC culture useful in the studies of the present invention are known. See generally, Li B, Tang S B, Zhang G, Chen J H, Li B J. Culture and characterization of human retinal capillary endothelial cell. Chin Ophthal Res 2005; 23: 20-2; Premanand C, Rema M, Sameer M Z, Sujatha M, Balasubramanyam M. Effect of curcumin on proliferation of human retinal endothelial cells under in vitro conditions. Invest Ophthalmol Vis Sci 2006; 47: 2179-84.
Briefly, HREC cells were divided into three groups: a normal control group; a group administered 30 mM glucose; and a group administered 30 mM glucose+D-Arg-2′,6′-Dmt-Lys-Phe-NH2. Survival of HRECs in high glucose co-treated with different concentrations of D-Arg-2′,6′-Dmt-Lys-Phe-NH2 (10 nM, 100 nM, 1 μM, 10 μM) was measured using an Annexin V+PI assay and flow cytometry. See generally, Koopman, G., Reutelingsperger, C. P., Kuijten, G. A. M., Keehnen, R. M. J., Pals, S. T., and van Oers, M. H. J. 1994. Annexin V for flow cytometric detection of phosphatidylserine expression on B cells undergoing apoptosis. Blood 84: 1415; Homburg, C. H., de Haas, M., von dem Borne, A. E., Verhoeven, A. J., Reutelingsperger, C. P., and Roos, D. 1995. Human neutrophils lose their surface Fc gamma RIII and acquire Annexin V binding sites during apoptosis in vitro. Blood 85: 532; Vermes, I., Haanen, C., Steffens-Nakken, H., and Reutelingsperger, C. 1995. A novel assay for apoptosis—flow cytometric detection of phosphatidylserine expression on early apoptotic cells using fluorescein labelled Annexin V. J. Immunol. Meth. 184: 39; Fadok, V. A., Voelker, D. R., Campbell, P. A., Cohen, J. J., Bratton, D. L., and Henson, P. M. 1992. Exposure of phosphatidylserine on the surface of apoptotic lymphocytes triggers specific recognition and removal by macrophages. J. Immunol. 148: 2207.
as §1

[5] = tested on: primary human retinal pigment epithelial (RPE) cells; experiment: Viability of primary RPE cells exposed to tBHP (MTT); type: cell-based; settings: preincubated 4 h with different concentrations, then tBHP 6 h
Method: Next, the viability of primary RPE cells was tested in the presence of tBHP and various concentrations of D-Arg-2′,6′-Dmt-Lys-Phe-NH2. Cells were plated at 10,000 cells per well in a 96-well plate and cultured for 24 h, then starved for 24 h. After that, cells were exposed to increasing concentrations of tBHP (FIG. 23A), or preincubated for 4 h with different concentrations of D-Arg-2′,6′-Dmt-Lys-Phe-NH2, then stimulated with tBHP for 6 h (FIG. 23B). […] Intracellular ROS production in three groups of RPE cells was also examined using FACS analysis. […] Three different concentration of D-Arg-2′,6′-Dmt-Lys-Phe-NH2 groups were analyzed. The ratio of red to green in 500 μM tBHP for the 3 h group is 1.08, the ratio of red to green in 10 nM D-Arg-2′,6′-Dmt-Lys-Phe-NH2 for 4 h+500 tBHP for 3 h group is 1.25; the ratio of red to green in 100 nM D-Arg-2′,6′-Dmt-Lys-Phe-NH2 for 4 hr+500 μM tBHP for 3 h group is 1.4; and the ratio of red to green in 1 μM D-Arg-2′,6′-Dmt-Lys-Phe-NH2 for 4 h+500 μM tBHP for 3 h group is […]. […] FIG. 33A: Control group, R/G is 3.63±0.24; FIG. 33B: 500 μM tBHP for 3 h group, R/G is 1.08±0.11; FIG. 33C: 1 μM D-Arg-2′,6′-Dmt-Lys-Phe-NH2 for 4 h+500 μM tBHP for 3 h group, R/G is 2.38±0.18. FIG. 33D is a chart comparing the fluorescence ratio for the different groups. *P<0.01, C vs. B.

D-Arg-2′,6′-Dmt-Lys-Phe-NH2 was tested, and the “(Q2+Q4)% cell apoptosis” value [1] was 8.4±0.8%, the “production of ROS” value [2] was “reduced” and the retinal microvascular changes [3] was “reduced”. The “survival ratio for HRECs (Q3)” value ([4]; 10 nM co-treatment with 30 mM glucose) was 84.3%, the “survival ratio for HRECs (Q3)” value ([4]; 100 nM co-treatment with 30 mM glucose) was 90.7% and the “survival ratio for HRECs (Q3)” value ([4]; 1 μM co-treatment with 30 mM glucose) was 92.8%. The “survival ratio for HRECs (Q3)” value ([4]; 10 μM co-treatment with 30 mM glucose) was 94.3%, the “survival of HRECs in high glucose” value ([4]; co-treatment, tested at 24 h and 48 h) was “significantly improved” and the “cell viability in response to tBHP” value [5] was “enhanced”.
